Assay results reported in PMC6658998, “Pharmacological characterization of the seven human NOX isoforms and their inhibitors” (Redox Biology, 2019).
pIC50: −log10 of the molar value.

Assays:
NOX5 = biological target: T1, NOX5 (Homo sapiens, UniProt Q96PH1); assay: NOX5 activity in purified membranes of HEK293 cells expressing NOX5 (WST-1, CBA); format: biochemical; conditions: for Inhibitory activity in NOX5 membrane assay: WST-1 / CBA, concentration not given
T1 construct: expressed in transfected cells
T1 sequence (Q96PH1 19-737 isoform Q96PH1-3 limits assumed): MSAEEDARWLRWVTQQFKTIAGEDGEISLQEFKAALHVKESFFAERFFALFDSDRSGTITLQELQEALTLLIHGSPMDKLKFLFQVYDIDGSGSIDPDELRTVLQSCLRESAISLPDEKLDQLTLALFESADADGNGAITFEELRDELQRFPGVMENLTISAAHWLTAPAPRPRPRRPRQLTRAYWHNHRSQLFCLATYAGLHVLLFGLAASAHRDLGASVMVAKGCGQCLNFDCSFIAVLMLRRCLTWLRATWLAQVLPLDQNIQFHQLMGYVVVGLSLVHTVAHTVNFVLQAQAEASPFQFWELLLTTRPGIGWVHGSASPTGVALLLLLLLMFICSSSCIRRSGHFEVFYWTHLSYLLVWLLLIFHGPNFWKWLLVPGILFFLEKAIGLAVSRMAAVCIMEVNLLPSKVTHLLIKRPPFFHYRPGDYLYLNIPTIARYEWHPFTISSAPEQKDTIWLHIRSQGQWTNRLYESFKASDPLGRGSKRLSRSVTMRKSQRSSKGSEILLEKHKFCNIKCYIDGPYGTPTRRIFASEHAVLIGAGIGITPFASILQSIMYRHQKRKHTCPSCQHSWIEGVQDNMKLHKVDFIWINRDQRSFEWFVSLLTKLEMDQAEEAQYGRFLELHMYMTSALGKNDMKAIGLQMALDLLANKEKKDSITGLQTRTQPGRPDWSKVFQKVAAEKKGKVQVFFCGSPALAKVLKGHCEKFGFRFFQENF
Protocol: PLB-985 (40 dishes 150 cm^2) were grown in suspension and differentiated by addition of 1.25% DMSO for 72 h. HEK293 cells expressing NOX5 (40 dishes 150 cm^2) were amplified until confluence and detached using trypsin-EDTA for 5 min followed by addition of 2 vol of pre-warmed complete growth media to inactivate trypsin. Collected cells were centrifuged at 4000 ×g for 10 min. Cells were washed with PBS and centrifuged at 1500 ×g for 10 min. The supernatant was discarded and the pellet was placed at −80 °C for at least 30 min. […] Samples were sonicated two times for 25 s (level 7, Branson Sonifier 250). Cell debris were removed by centrifugation at 800 ×g for 10 min at 4 °C. The supernatant was laid on a sucrose gradient consisting of a bottom layer of 1 mL 40% sucrose and an upper layer of 1 mL 17% sucrose. Ultracentrifugation was performed at 150,000 ×g in SW60 rotor for 30 min at 4 °C. Following separation, the upper cytosolic fraction was discarded and the cloudy membrane fraction was collected. Protein concentration was determined with Bradford reagent using BSA as a standard. Small aliquots were kept at −80 °C.
NOX2 containing membranes were used at 10 μg/mL of proteins in a reaction mixture containing 90 nM recombinant RacQ61L, 45 nM recombinant p67Np47 N chimeric protein (consisting of a fusion of the N-termini of human p67phox [residues 1–210] and p47phox [residues 1–286]), 90 μM SDS, 1 μM FAD-Na2 and 1 mM WST-1 or 800 μM CBA in PBS. The reaction mixture was dispensed in 96-well plates (transparent for WST-1 absorbance, black for CBA fluorescence) at 80 μL/well and the plate was incubated for 5 min at 37 °C. The reaction was initiated by addition of 20 μL/well NADPH at final concentration 100 μM. NOX5 containing membranes were used at 20 μg/mL of proteins in a reaction mixture containing 50 mM HEPES pH 7.4, 1 mM NTA, 1 mM EDTA, 1 mM BAPTA, 1 mM MgCl2, 5.5 μM phosphatidic acid, 1 μM FAD, 700 μM CaCl2 and 1 mM WST-1 or 800 μM CBA in Milli-Q H2O. The reaction mixture was dispensed in 96-well plates (transparent for absorbance, black for fluorescence) at 80 μL/well and 20 μL/well of NADPH at final concentration of 200 μM were added to initiate the reaction.
Reported NOX inhibitors were added in 96 well plates at a single concentration as indicated to which mix containing membrane fractions and all components of the NOX2 or NOX5 membrane assays were added except NADPH. After 2–3 min incubation, 200 μM NADPH was added to start the reaction.

NOX2 [1] = biological target: T2, NOX2 (Homo sapiens, UniProt P04839); assay: WST-1 O2•- detection in differentiated PLB-985 cells (NOX2)
T2 sequence (P04839 2-570 limits assumed): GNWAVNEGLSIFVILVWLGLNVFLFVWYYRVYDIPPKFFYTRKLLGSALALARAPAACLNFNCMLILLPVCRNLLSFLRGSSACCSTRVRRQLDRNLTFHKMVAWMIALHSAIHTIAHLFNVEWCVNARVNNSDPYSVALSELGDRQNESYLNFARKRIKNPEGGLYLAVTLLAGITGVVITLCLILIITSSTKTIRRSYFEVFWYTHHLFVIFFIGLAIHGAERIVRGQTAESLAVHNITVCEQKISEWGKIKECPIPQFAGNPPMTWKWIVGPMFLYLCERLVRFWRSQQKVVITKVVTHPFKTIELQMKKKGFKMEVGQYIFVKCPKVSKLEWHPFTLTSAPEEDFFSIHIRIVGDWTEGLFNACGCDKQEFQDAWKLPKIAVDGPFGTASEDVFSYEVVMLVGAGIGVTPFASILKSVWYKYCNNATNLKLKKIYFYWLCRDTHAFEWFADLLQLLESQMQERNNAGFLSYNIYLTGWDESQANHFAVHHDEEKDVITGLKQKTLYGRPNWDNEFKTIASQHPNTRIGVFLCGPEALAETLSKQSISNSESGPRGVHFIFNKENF
T2 sequence (P13498 1-195 partner): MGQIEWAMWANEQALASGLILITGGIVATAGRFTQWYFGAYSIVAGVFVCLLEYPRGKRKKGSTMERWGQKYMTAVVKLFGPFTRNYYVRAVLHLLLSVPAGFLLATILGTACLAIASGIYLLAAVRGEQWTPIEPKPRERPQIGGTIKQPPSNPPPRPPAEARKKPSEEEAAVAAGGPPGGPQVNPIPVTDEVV

NOX2 [2] = biological target: T2, NOX2; assay: Amplex Red/HRP H2O2 detection in differentiated PLB-985 cells (NOX2)

Compound | Inhibitory activity in NOX5 membrane assay (NOX5) | pIC50 (NOX2 [1]) | pIC50 (NOX2 [2]) | further results
O=c1c2ccccc2[se]n1-c1ccccc1 [Ebselen, ebselen] |  |  |  | Inhibition of NOX5-dependent signal in membranes (NOX5; compound 50 μM): inhibited
c1ccc(Cn2nnc3c(Sc4nc5ccccc5o4)ncnc32)cc1 [VAS2870, 3-benzyl-7-(2-benzoxazolyl)thio-1,2,3-triazolo[4,5-d]pyrimidine] | no inhibitory activity |  |  | Inhibitory activity in NOX5 membrane assay (NOX5; listed as VAS280): some level of inhibition
Cc1c2c(=O)n(-c3ccccc3Cl)[nH]c2cc(=O)n1Cc1ccccn1 [GKT136901] |  | < 4.30 | 4.91 | 
COc1cc(C(C)=O)ccc1O [Apocynin, apocynin] |  | < 4.30 | < 4.30 | 
COc1cc(C(C)=O)cc(-c2cc(C(C)=O)cc(OC)c2O)c1O [Diapocynin, diapocynin] |  | < 4.30 | 4.41 | 
c1ccc2c(c1)[I+]c1ccccc1-2 [DPI, diphenylene iodonium chloride] | potently inhibited |  |  | 
